In brackets after ≈: the same amount, converted by molar mass. Where two headings read alike, the source gives them in different places.
Columns and labels:
[1] = tested on: Hs27 (human foreskin fibroblast); assay: Cytotoxicity assay (MTT); assay type: cell-based; conditions: 24 h treatment
T. gondii = conditions: values from the earlier paper; ref [25]; cited from earlier work
T. gondii RH-GFP [2] = assay: microbe, parasite or virus in culture; assay type: cell-based, Toxoplasma gondii
Method: Cell and parasite culture: The Hs27 (human foreskin fibroblast) (ATCC® CRL-1634™) (ATCC, Manassas, VA, USA) were culturing in DMEM (Dulbecco’s modified Eagle’s medium-ATCC® 30-2002™, ATCC) supplemented with 10% fetal bovine serum (fetal bovine serum, ATCC® 30-2020™, ATCC), 100 I.U./mL penicillin and 100 μg/mL streptomycin (penicillin-streptomycin solution ATCC® 30-2300™, ATCC). Cells were trypsinized (Trypsin-EDTA Solution ATCC® 30-2101™, ATCC) twice a week and seeded at a density of 1 × 10^6 per T25 cell culture flask and incubated in a 37 °C and 5% CO2 to achieve a confluent monolayer. The RH strain of Toxoplasma gondii (RH-GFP ATCC® 50940™, ATCC, highly virulent, haplogroup first, expression of green fluorescent protein) was maintained as tachyzoites, in parasite culture medium, which contains DMEM medium with 3% HIFBS (heat-inactivated FBS; 1 h in 56 °C). Infected tissue culture cells were incubated in a 37 °C and 5% CO2.
After 72 h of incubation, the medium was removed and then 1 × 10^5 per well of tachyzoites of the RH strain were added to the cell monolayers, in DMEM without phenol red with 3% HIFBS. One hour later, the compounds and drugs dilutions in the DMEM without phenol red medium were added to the Hs27 cells with T. gondii. Concentration of the compounds below cytotoxic concentration (<CC30), sulfadiazine 0–10,000 μM and trimethoprim, pyrimethamine and atovaquone 0–200 μM. After a subsequent 96 h of incubation, the plates were read with covered lids, and both excitation (475 nm) and emission (509 nm) from the bottom using multimode microplate reader SpectraMax® i3. The results were expressed as mean fluorescent intensity (MFI) and transformed to the percentage of viability compared to untreated cells. Finally, the inhibitory concentrations for 50% inhibition of T. gondii proliferation (IC50) were calculated. All experiments were performed in triplicate.
Graphs and statistical analyses: Statistical analyses and graphs were performed using GraphPad Prism version 9.0.0 for macOS (GraphPad Software, San Diego, CA, USA). […] Additionally, a relationship between cytotoxicity and antiparasitic activity were calculated as the ratio of the 30% cytotoxic concentration (CC30) to the 50% antiparasitic concentration (IC50) and presented as the selectivity index (SI).

[3] = tested on: tachyzoites of the RH-GFP strain; assay: Influence of compounds during Toxoplasma growth, Assay A (invasion); assay type: cell-based, Toxoplasma gondii; conditions: compound at IC50 present 3 h during infection, washed, 24 h free medium; vs non-treated
Method: (§1) Influence of Compounds during Toxoplasma Growth (Assay A and B): Hs27 cells were cultured on Lab-Tek™ 4-well Chamber Slides (Nunc, Thermo Fisher Scientific, Waltham, MA, USA) (5 × 10^4 cells/500 μL per well).
Assay A—after 48 h, the medium was removed and then 5 × 10^5/500 µL/well tachyzoites of the RH-GFP strain were added to the cell monolayers, in parasite culture medium with the selected compounds at IC50 concentration: 2b, 5b, 8b, 11b or 12b, for 3 h. Then, the cells were washed to remove extracellular parasites and parasite culture medium (without any compounds) was added for 24 h.
(§2) In both assays as the controls, Hs27 cells were infected, but not treated. After subsequent 24 h of incubation (Assay A and B), the slides were washed with sterile PBS, fixed with formaldehyde solution (252549, Sigma-Aldrich), 3.7% in PBS for 20 min and stained with DAPI for 10 min (1 mg/mL, ThermoFisher Scientific). Microscopic analysis of 100 cells in turn, comprised of counting the infected cell ratio and tachyzoites per each parasitophorous vacuoles of infected cell, was performed using a fluorescent microscope (Axio Scope.A1, Carl Zeiss, Jena, Germany) at a magnification ×1000. For image processing ZEISS ZEN Microscope Software version 3.1 was used. Three independent experiments on triplicate chamber slides using the same conditions for both assays were performed.

[4] = tested on: tachyzoites of the RH-GFP strain; assay: Influence of compounds during Toxoplasma growth, Assay B (intracellular proliferation); assay type: cell-based, Toxoplasma gondii; conditions: 3 h infection without compound, washed, 24 h with compound at IC50
Method: as §1
Assay B—after 48 h, the medium was removed and then 5 × 10^5/500 µL/well tachyzoites of the RH-GFP strain were added to the cell monolayers, in parasite culture medium for 3 h.
as §2

T. gondii RH-GFP [5] = assay: Kinetics of T. gondii growth, Assay 1 (intracellular tachyzoites); assay type: cell-based, Toxoplasma gondii; conditions: Assay 1 and Assay 2, Figure 12
Method: Kinetics of T. gondii growth: The effect of 12b and drugs on kinetics of T. gondii RH-GFP growth was performed as follows: 1 × 10^4 per well of Hs27 cells were seeded on black, 96-well, tissue culture-treated plates with optical bottoms in DMEM cell culture medium.
Assay 1—After 72 h of incubation, the medium was removed and then 1 × 10^5 per well of tachyzoites of the RH strain were added to the cell monolayers, in DMEM without phenol red with 3% HIFBS. One hour later, the compound 12b and drugs dilutions in the DMEM without phenol red medium were added to the Hs27 cells with T. gondii.
The plates were read with covered lids, and both excitation (475 nm) and emission (509 nm) from the bottom using multimode microplate reader SpectraMax® i3. Additionally, fluorescence measurement was performed every 24 h. The plates were incubated at 37 °C with 5% of CO2. The results were expressed as mean fluorescent intensity (MFI). The initial value for 1 × 10^5 of T. gondii RH-GFP was 37,000 MFI (log 4.57). The lower limit of detection was 1000 MFI (log 3.0). Data presented as a logarithm of mean fluorescence intensity (logMFI) on concentration and time dependent curves. All experiments were performed in triplicate.

[6] = Toxoplasma gondii, HS27, 96 h; read-out: IC50 (50% inhibition of T. gondii proliferation)
[7] = ratio of CC30 (Hs27) to IC50 (T. gondii); 1b–12b and positive controls

Structure (SMILES) | CC30 (cytotoxic concentration causing 30% of cells proliferation inhibition) [1] [µg/mL] | IC50 (50% inhibition of T. gondii proliferation) (T. gondii) [µg/mL] | IC50 (T. gondii RH-GFP [2]; [6]) [µg/mL] | SI (selectivity index, CC30/IC50) (T. gondii RH-GFP [2]; [7]) | other results
Cc1nc[nH]c1C(=O)NNC(=S)Nc1ccccc1Br [7a] | 205.31 | 27.65 | – | – | –
Cc1nc[nH]c1-c1nnc(Nc2ccccc2Br)s1 [7b] | 29.71 | – | 8.77 (≈ 26.1 µM) | 3.39 | –
Cc1nc[nH]c1C(=O)NNC(=S)Nc1cccc(Br)c1 [8a] | 96.12 | 15.64 | – | – | –
Cc1nc[nH]c1-c1nnc(Nc2cccc(Br)c2)s1 [8b] | 20.55 | – | 3.83 (≈ 11.4 µM) | 5.37 | number of tachyzoites per vacuole (Assay A) [3]: significant reductions; percentage of infected cells (Assay A) [3]: significant reductions; number of intravacuolar tachyzoites (Assay B) [4]: significant reduction; percentage of infected cells (Assay B) [4]: still the same; size of parasitophorous vacuole (Assay B) [4]: significant reduction
Cc1nc[nH]c1C(=O)NNC(=S)Nc1ccc(Br)cc1 [9a] | 48.89 | 14.57 | – | – | –
Cc1nc[nH]c1-c1nnc(Nc2ccc(Br)cc2)s1 [9b] | 21.52 | – | 5.41 (≈ 16.1 µM) | 3.98 | –
Cc1nc[nH]c1C(=O)NNC(=S)Nc1ccccc1I [10a] | 101.58 | 20.31 | – | – | –
Cc1nc[nH]c1-c1nnc(Nc2ccccc2I)s1 [10b] | 89.54 | – | 11 (≈ 28.8 µM) | 8.13 | –
Cc1nc[nH]c1C(=O)NNC(=S)Nc1cccc(I)c1 [11a] | 85.57 | 10.30 | – | – | –
Cc1nc[nH]c1-c1nnc(Nc2cccc(I)c2)s1 [11b] | 36.48 | – | 4.49 (≈ 11.7 µM) | 8.13 | number of tachyzoites per vacuole (Assay A) [3]: significant reductions; percentage of infected cells (Assay A) [3]: significant reductions; number of intravacuolar tachyzoites (Assay B) [4]: significant reduction; percentage of infected cells (Assay B) [4]: still the same; size of parasitophorous vacuole (Assay B) [4]: significant reduction
Cc1nc[nH]c1C(=O)NNC(=S)Nc1ccc(I)cc1 [12a] | 71.58 | 22.01 | – | – | –
O=C1C(O)=C([C@H]2CC[C@H](c3ccc(Cl)cc3)CC2)C(=O)c2ccccc21 [Atovaquone (ATO), Atovaquone, reference compound] | 54.26 | – | 0.24 (≈ 0.654 µM) | 227.56 | effect on the kinetics of T. gondii growth (T. gondii RH-GFP [5]): only moderately slow down the proliferation of tachyzoites
CCc1nc(N)nc(N)c1-c1ccc(Cl)cc1 [Pyrimethamine (PYR), Pyrimethamine, reference compound] | 45.26 | – | – | 15.85 | IC50 (T. gondii RH-GFP [2]; Toxoplasma gondii, HS27, 96 h, read-out: IC50 (50% inhibition of T. gondii proliferation)): 2.86 µg/mL (≈ 11.5 µM); effect on the kinetics of T. gondii growth (T. gondii RH-GFP [5]): only moderately slow down the proliferation of tachyzoites

Source: article PMC8145641 (Cells, 2021)
